According to ChEMBL document CHEMBL5620405, “A platform for the rapid synthesis of molecular glues (Rapid-Glue) under miniaturized conditions for direct biological screening” (Eur J Med Chem, 2023):
Calls of active or inactive are those of the source. No cut-off for these calls is given here.

Columns and labels:
MOLT-4 [1] = assay: Antiproliferative activity against human MOLT-4 cells assessed as cell viability at 1 uM measured after 72 hrs by Alamar blue assay; type: functional; conditions: read-out: Activity
RS4-11 [2] = assay: Antiproliferative activity against human RS4-11 cells assessed as reduction in cell viability measured after 72 hrs by Alamar blue assay; type: functional, cell-based; conditions: RS4-11, 72 h
[3] = biological target: T1, Protein cereblon/Eukaryotic peptide chain release factor GTP-binding subunit ERF3A (Homo sapiens, UniProt Q96SW2+P15170); assay: Molecular glue activity at CRBN/GSPT1 in human RS4-11 cells assessed as induction of GSPT1 degradation at 1 uM by western blot analysis; type: cell-based; conditions: time 0.5-24 hrs, TDE = time-dependent effect
Target sequence in this assay (P15170 whole entry, looked up): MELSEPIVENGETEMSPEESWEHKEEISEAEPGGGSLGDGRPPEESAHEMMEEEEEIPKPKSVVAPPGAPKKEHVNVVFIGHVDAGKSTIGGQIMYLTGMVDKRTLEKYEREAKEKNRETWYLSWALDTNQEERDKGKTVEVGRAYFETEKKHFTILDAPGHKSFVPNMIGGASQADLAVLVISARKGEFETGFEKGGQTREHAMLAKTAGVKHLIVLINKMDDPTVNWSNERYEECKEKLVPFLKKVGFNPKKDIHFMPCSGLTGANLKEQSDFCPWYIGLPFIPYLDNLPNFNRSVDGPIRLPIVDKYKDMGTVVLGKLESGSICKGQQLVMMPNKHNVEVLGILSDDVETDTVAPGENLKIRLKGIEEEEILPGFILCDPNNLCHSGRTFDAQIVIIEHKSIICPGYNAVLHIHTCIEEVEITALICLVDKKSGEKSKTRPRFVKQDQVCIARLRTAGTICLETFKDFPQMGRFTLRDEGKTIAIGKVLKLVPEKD
Target sequence in this assay (Q96SW2 whole entry, looked up): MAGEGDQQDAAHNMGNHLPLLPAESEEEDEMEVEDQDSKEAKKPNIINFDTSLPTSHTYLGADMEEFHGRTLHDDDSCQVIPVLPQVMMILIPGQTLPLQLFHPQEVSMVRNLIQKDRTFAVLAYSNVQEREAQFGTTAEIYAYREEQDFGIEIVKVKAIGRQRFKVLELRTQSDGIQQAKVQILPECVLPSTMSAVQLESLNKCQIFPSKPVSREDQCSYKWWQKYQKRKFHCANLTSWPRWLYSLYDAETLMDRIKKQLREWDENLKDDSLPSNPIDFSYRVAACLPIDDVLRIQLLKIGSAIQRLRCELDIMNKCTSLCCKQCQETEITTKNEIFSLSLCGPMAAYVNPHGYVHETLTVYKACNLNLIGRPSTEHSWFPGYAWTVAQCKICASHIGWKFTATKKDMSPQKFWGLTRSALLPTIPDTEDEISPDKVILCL

MM1.S = assay: Antiproliferative activity against human MM1.S cells assessed as reduction in cell viability measured after 72 hrs by Alamar blue assay; type: functional, cell-based
[4] = biological target: T1, Protein cereblon/Eukaryotic peptide chain release factor GTP-binding subunit ERF3A; assay: Molecular glue activity at CRBN/GSPT1 in human RS4-11 cells assessed as downregulation of GSPT1 expression at 1 uM measured after 6 hrs by TMT-mass spectrometry; type: cell-based
Target sequence in this assay (P15170 whole entry, looked up): as the sequence (P15170 whole entry, looked up) above
Target sequence in this assay (Q96SW2 whole entry, looked up): as the sequence (Q96SW2 whole entry, looked up) above

[5] = biological target: T1, Protein cereblon/Eukaryotic peptide chain release factor GTP-binding subunit ERF3A; assay: Molecular glue activity at CRBN/GSPT1 in human RS4-11 cells assessed as induction of GSPT1 degradation at 1 uM measured after 4 hrs by western blot analysis; type: cell-based
Target sequence in this assay (P15170 whole entry, looked up): as the sequence (P15170 whole entry, looked up) above
Target sequence in this assay (Q96SW2 whole entry, looked up): as the sequence (Q96SW2 whole entry, looked up) above

[6] = biological target: T1, Protein cereblon/Eukaryotic peptide chain release factor GTP-binding subunit ERF3A; assay: Molecular glue activity at CRBN/GSPT1 in human RS4-11 cells assessed as induction of GSPT1 degradation measured after 12 hrs by western blot analysis; type: cell-based; conditions: dose 0.0001-10 µM
Target sequence in this assay (P15170 whole entry, looked up): as the sequence (P15170 whole entry, looked up) above
Target sequence in this assay (Q96SW2 whole entry, looked up): as the sequence (Q96SW2 whole entry, looked up) above

RS4-11 [7] = assay: Antiproliferative activity against human RS4-11 cells assessed as cell viability at 0.1 uM measured after 72 hrs by Alamar blue assay; type: functional; conditions: read-out: Activity
[8] = biological target: T1, Protein cereblon/Eukaryotic peptide chain release factor GTP-binding subunit ERF3A; assay: Molecular glue activity at CRBN/GSPT1 in human RS4-11 cells assessed as induction of GSPT1 degradation by western blot analysis; type: cell-based
Target sequence in this assay (Q96SW2 whole entry): as the sequence (Q96SW2 whole entry, looked up) above
Target sequence in this assay (P15170 whole entry): as the sequence (P15170 whole entry, looked up) above

[9] = biological target: T1, Protein cereblon/Eukaryotic peptide chain release factor GTP-binding subunit ERF3A; assay: Molecular glue activity at CRBN/GSPT1 in human RS4-11 cells assessed as induction of GSPT1 degradation by measuring reduction in GSPT1 level measured for 6 hrs by western blot analysis; type: cell-based; parameters: scale not given: the % may be the effect or the level left
Target sequence in this assay (P15170 whole entry, looked up): as above
Target sequence in this assay (Q96SW2 whole entry, looked up): as the sequence (Q96SW2 whole entry, looked up) above

RS4-11 [10] = assay: Antiproliferative activity against human RS4-11 cells assessed as cell viability at 1 uM measured after 72 hrs by Alamar blue assay; type: functional; conditions: read-out: Activity
MOLT-4 [11] = assay: Antiproliferative activity against human MOLT-4 cells assessed as reduction in cell viability measured after 72 hrs by Alamar blue assay; type: functional, cell-based; conditions: MOLT-4, 72 h
RS4-11 [12] = assay: Antiproliferative activity against human RS4-11 cells assessed as cell viability at 0.5 uM measured after 72 hrs by Alamar blue assay; type: functional; conditions: read-out: Activity
[13] = biological target: T1, Protein cereblon/Eukaryotic peptide chain release factor GTP-binding subunit ERF3A; assay: Molecular glue activity at CRBN/GSPT1 in human RS4-11 cells assessed as induction of GSPT1 degradation at 0.1 uM measured after 24 hrs by western blot analysis; type: cell-based
Target sequence in this assay (P15170 whole entry, looked up): as the sequence (P15170 whole entry, looked up) above
Target sequence in this assay (Q96SW2 whole entry, looked up): as the sequence (Q96SW2 whole entry, looked up) above

SMILES | viability at 1 µM (MOLT-4 [1]) [%] | IC50 (RS4-11 [2]) [µM] | IC50 (MM1.S) [µM] | DC50 [8] [µM] | viability at 1 µM (RS4-11 [10]) [%] | IC50 (MOLT-4 [11]) [µM] | other results
O=C(COc1ccccc1-c1cccc2c1CN(C1CCC(=O)NC1=O)C2=O)N/N=C/c1cn(S(=O)(=O)c2ccccc2)c2ccccc12 (centres undefined) | 43 | 0.007 | 0.131 | 0.154 | 15 | 0.175 | Activity [3]: Tde; Activity [4]: Active; Activity [5]: 100%; Activity [6]: Dose-Dependent Effect; viability at 0.1 µM (RS4-11 [7]): 52%; Activity [9]: > 50%; viability at 0.5 µM (RS4-11 [12]): 5%; Activity [13]: 100%
CN1C(=O)CCC(N2Cc3c(cccc3-c3ccccc3OCC(=O)N/N=C/c3cn(S(=O)(=O)c4ccccc4)c4ccccc34)C2=O)C1=O (centres undefined) | > 100 | > 1 | > 10 |  | 97 | > 1 | 
O=C(COc1ccccc1-c1cccc2c1CN(C1CCC(=O)NC1=O)C2=O)NCc1nn(Cc2ccccc2)c2ccccc12 (centres undefined) |  |  |  | 0.785 |  |  | 
O=C(COc1ccccc1-c1cccc2c1CN(C1CCC(=O)NC1=O)C2=O)NCCc1cn(S(=O)(=O)c2ccccc2)c2ccccc12 (centres undefined) |  |  |  | 0.168 |  |  | 
CN1C(=O)CCC(N2Cc3cc(-c4ccc(OCC(=O)N/N=C/c5c(Cl)ccc(C(F)(F)F)c5Cl)cc4)ccc3C2=O)C1=O (centres undefined) | > 100 |  |  |  | > 100 |  | 
O=C(COc1ccc(-c2ccc3c(c2)CN(C2CCC(=O)NC2=O)C3=O)cc1)N/N=C/c1c(C(F)(F)F)ccc(Cl)c1Cl (centres undefined) | 67 |  |  |  | 54 |  | 
CN1CCN(c2ncc(/C=N/NC(=O)COc3ccccc3-c3cccc4c3CN(C3CCC(=O)NC3=O)C4=O)s2)CC1 (centres undefined) | 66 | 0.071 | > 10 |  | 24 | > 1 | viability at 0.1 µM (RS4-11 [7]): 56%; viability at 0.5 µM (RS4-11 [12]): 23%
CN1C(=O)CCC(N2Cc3c(cccc3-c3ccccc3OCC(=O)N/N=C/c3nn(Cc4ccccc4)c4ccccc34)C2=O)C1=O (centres undefined) | > 100 | > 1 | > 1 |  | 98 | > 1 | 
CN1C(=O)CCC(N2Cc3cc(-c4ccc(OCC(=O)N/N=C/c5c(C(F)(F)F)ccc(Cl)c5Cl)cc4)ccc3C2=O)C1=O (centres undefined) | > 100 |  |  |  | > 100 |  | 
O=C(COc1ccc(-c2ccc3c(c2)CN(C2CCC(=O)NC2=O)C3=O)cc1)N/N=C/c1c(Cl)ccc(C(F)(F)F)c1Cl (centres undefined) | 74 |  |  |  | 47 |  | 
CN1CCN(c2ncc(/C=N/NC(=O)COc3ccccc3-c3cccc4c3CN(C3CCC(=O)N(C)C3=O)C4=O)s2)CC1 (centres undefined) | > 100 | > 1 | > 10 |  | 96 | > 10 | 
O=C(COc1ccccc1-c1cccc2c1CN(C1CCC(=O)NC1=O)C2=O)NCc1cn(S(=O)(=O)c2ccccc2)c2ccccc12 (centres undefined) |  |  |  | 0.166 |  |  | 
O=C(COc1ccccc1-c1cccc2c1CN(C1CCC(=O)NC1=O)C2=O)N/N=C/c1nn(Cc2ccccc2)c2ccccc12 (centres undefined) | 7 | 0.002 | 0.37 | 0.05 | 11 | 0.26 | Activity [3]: Tde; Activity [4]: Active; Activity [5]: 100%; Activity [6]: Dose-Dependent Effect; viability at 0.1 µM (RS4-11 [7]): 86%; Activity [9]: > 50%; viability at 0.5 µM (RS4-11 [12]): 6%; Activity [13]: 100%
Cc1nc2ccccn2c1/C=N/NC(=O)COc1ccccc1-c1cccc2c1CN(C1CCC(=O)NC1=O)C2=O (centres undefined) | 52 | 0.007 | > 10 |  | 25 | > 10 | viability at 0.1 µM (RS4-11 [7]): 46%; viability at 0.5 µM (RS4-11 [12]): 15%
Cc1nc2ccccn2c1/C=N/NC(=O)COc1ccccc1-c1cccc2c1CN(C1CCC(=O)N(C)C1=O)C2=O (centres undefined) | > 100 | > 10 | > 10 |  | 89 | > 10 | 
O=C1CCC(N2Cc3cc(CNC(=O)C(F)(F)c4ccc(Cl)cc4)ccc3C2=O)C(=O)N1 (centres undefined) |  | 0.0001 |  |  |  |  | 
